15 compounds from patent publication US8178678B2, “Bis-quaternary ammonium salts and methods for modulating neuronal nicotinic acetylcholine receptors” (University of Kentucky Research Foundation, priority 2006, dated 2012) can be followed below.

Assay [1] deals with T1, Rat Striatal Nicotinic Receptors ([^3H]MLA binding sites; α7) (Rattus norvegicus, UniProt Q05941).
T1 construct: Whole brain, excluding cortex and cerebellum, was homogenized in 20 vol of ice-cold buffer; from tissue; host or cells: rat brain membranes (whole brain excluding cortex and cerebellum)
T1 sequence (Q05941 23-502): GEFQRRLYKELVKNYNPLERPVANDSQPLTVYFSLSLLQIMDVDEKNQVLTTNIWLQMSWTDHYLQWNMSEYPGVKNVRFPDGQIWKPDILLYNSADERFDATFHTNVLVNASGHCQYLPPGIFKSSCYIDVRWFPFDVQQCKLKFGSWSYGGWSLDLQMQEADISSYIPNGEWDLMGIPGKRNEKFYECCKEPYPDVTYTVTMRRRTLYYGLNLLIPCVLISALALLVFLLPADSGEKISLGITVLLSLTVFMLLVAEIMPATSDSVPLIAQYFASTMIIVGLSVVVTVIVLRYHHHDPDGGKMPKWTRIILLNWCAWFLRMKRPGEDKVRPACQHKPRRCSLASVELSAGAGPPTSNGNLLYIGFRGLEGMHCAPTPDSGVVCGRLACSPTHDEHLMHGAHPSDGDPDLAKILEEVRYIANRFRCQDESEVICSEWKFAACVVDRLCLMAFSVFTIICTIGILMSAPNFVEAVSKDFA
Briefly: Inhibition of [^3H]MLA (methyllycaconitine) binding. As to conditions: 100 nM analog, [^3H]MLA, nonspecific S-nicotine, rat brain membranes; for inhibition at 0.1 µM: read-out: [^3H]MLA binding, % inhibition. As to the method: Homogenate was centrifuged (25,000 g, 15 min, 4° C). Pellets were resuspended in 20 vol buffer and incubated at 37° C., for 10 min, cooled to 4° C. and centrifuged (25,000 g, 15 min, 4° C.). Pellets were resuspended and centrifuged using the same conditions. […] Upon use, final pellets were resuspended in 20 vol assay buffer. Samples (250 μl) contained 100-140 μg of membrane protein, 3 nM [^3H]-S-nicotine or 3 nM [^3H]-methyllycaconitine (MLA), and bis-quaternary ammonium analog (100 nM) in assay buffer containing 50 mM Tris. Control was in the absence of analog. In [^3H]-S-nicotine and [^3H]-methyllycaconitine binding assays, nonspecific binding was determined in the presence of 10 μM cytisine and 10 μM S-nicotine, respectively. Incubations proceeded for 60 min at room temperature using 96-well plates and were terminated by harvesting on Unifilter-96 GF/B filter plates presoaked in 0.5% polyethylenimine, using a Packard FilterMate harvester. After washing 5 times with 350 μl ice-cold assay buffer, filter plates were dried (60 min, 4° C.), bottom-sealed, and filled with Packard's MicroScint 20 cocktail (40 μl/well). After 60 min, filter plates were top-sealed, and radioactivity determined using a Packard TopCount. Protein concentrations were determined using the Bradford dye-binding procedure bovine serum albumin as the standard. […]

The target in assay [2] is T2, Rat Striatal Nicotinic Receptors ([^3H]NIC binding sites; α4β2) (Rattus norvegicus, UniProt P09483+P12390).
T2 construct: Whole brain, excluding cortex and cerebellum, was homogenized in 20 vol of ice-cold buffer; from tissue; host or cells: rat brain membranes (whole brain excluding cortex and cerebellum)
T2 sequence (P09483 31-630): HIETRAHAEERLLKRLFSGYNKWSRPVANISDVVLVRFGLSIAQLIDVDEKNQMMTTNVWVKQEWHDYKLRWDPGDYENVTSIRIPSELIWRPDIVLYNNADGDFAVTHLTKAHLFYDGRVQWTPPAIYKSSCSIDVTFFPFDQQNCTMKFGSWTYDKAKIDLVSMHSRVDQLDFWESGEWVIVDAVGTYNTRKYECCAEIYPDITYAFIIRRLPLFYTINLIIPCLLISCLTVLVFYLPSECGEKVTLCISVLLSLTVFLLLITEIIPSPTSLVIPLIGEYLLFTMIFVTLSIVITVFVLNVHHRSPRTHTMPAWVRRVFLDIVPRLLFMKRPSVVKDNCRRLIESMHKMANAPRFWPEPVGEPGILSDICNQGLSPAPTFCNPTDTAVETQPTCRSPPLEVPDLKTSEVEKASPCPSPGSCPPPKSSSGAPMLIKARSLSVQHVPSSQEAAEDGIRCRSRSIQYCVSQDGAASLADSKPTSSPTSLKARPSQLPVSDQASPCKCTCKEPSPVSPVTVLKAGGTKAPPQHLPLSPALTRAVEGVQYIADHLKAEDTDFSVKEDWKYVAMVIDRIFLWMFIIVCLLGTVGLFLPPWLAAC
T2 sequence (P12390 25-500): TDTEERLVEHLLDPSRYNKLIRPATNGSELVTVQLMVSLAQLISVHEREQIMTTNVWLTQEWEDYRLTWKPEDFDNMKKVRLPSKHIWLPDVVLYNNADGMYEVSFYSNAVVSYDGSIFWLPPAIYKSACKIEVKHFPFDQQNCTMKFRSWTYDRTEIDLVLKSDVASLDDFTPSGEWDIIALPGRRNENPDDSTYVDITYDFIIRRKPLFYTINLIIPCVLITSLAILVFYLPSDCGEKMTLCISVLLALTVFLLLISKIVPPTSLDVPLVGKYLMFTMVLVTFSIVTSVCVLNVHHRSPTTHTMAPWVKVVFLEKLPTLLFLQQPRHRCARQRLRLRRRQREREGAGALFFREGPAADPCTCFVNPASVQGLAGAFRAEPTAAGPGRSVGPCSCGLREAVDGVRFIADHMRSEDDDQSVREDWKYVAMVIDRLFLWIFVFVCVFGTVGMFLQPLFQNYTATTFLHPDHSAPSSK
Briefly: Inhibition of [^3H]NIC binding. The settings on record: 100 nM analog, 3 nM [^3H]NIC, nonspecific 10 μM cytisine, rat brain membranes; for inhibition at 0.1 µM: 1 h. As to the method:
Homogenate was centrifuged (25,000 g, 15 min, 4° C). Pellets were resuspended in 20 vol buffer and incubated at 37° C., for 10 min, cooled to 4° C. and centrifuged (25,000 g, 15 min, 4° C.). Pellets were resuspended and centrifuged using the same conditions. […] Upon use, final pellets were resuspended in 20 vol assay buffer. Samples (250 μl) contained 100-140 μg of membrane protein, 3 nM [^3H]-S-nicotine or 3 nM [^3H]-methyllycaconitine (MLA), and bis-quaternary ammonium analog (100 nM) in assay buffer containing 50 mM Tris. Control was in the absence of analog. In [^3H]-S-nicotine and [^3H]-methyllycaconitine binding assays, nonspecific binding was determined in the presence of 10 μM cytisine and 10 μM S-nicotine, respectively. Incubations proceeded for 60 min at room temperature using 96-well plates and were terminated by harvesting on Unifilter-96 GF/B filter plates presoaked in 0.5% polyethylenimine, using a Packard FilterMate harvester. After washing 5 times with 350 μl ice-cold assay buffer, filter plates were dried (60 min, 4° C.), bottom-sealed, and filled with Packard's MicroScint 20 cocktail (40 μl/well). After 60 min, filter plates were top-sealed, and radioactivity determined using a Packard TopCount. Protein concentrations were determined using the Bradford dye-binding procedure bovine serum albumin as the standard.
Specific binding in the [^3H]NIC binding assay is calculated as the difference between the total binding of 3 nM [^3H]NIC and nonspecific binding in the presence of 10 μM cold cytisine. […] Analog-induced inhibition of S-nicotine-evoked [^3H]DA release is calculated as a percent of that in the absence of the bis-quaternary ammonium analog.

Assay [3] concerns nicotinic receptors mediating S-nicotine-evoked [^3H]DA release in rat striatal slices. Briefly: Inhibition of S-nicotine-evoked [^3H]dopamine release from superfused rat striatal slices. It is filed as cell-based. The settings on record: 100 nM analog superfused 60 min before NIC 10 μM, rat striatal slices; for inhibition at 0.1 µM: 1 h, read-out: [^3H]DA release, % inhibition of S-nicotine-evoked release. As to the method:
Rat striatal slices (500 μm thickness, 6-8 mg wet weight) were incubated for 30 minutes in Krebs buffer (118 mM NaCl, 4.7 mM KCl, 1.2 mM MgCl2, 1.0 mM NaH2PO4, 1.3 mM CaCl2, 11.1 mM glucose, 25 mM NaHCO3, 0.11 mM L-ascorbic acid, and 0.004 mM disodium EDTA; pH 7.4, and saturated with 95% O2/5% CO2) in a metabolic shaker at 34° C. Slices were rinsed with 15 mL of fresh buffer and incubated for an additional 30 minutes in fresh buffer containing 0.1 μM [^3H]dopamine (DA; 6 slices/3 mL). Subsequently, slices were rinsed with 15 mL of fresh buffer and transferred to a glass superfusion chamber. Slices were superfused (1.0 mL/min) for 60 minutes with Krebs buffer containing nomifensine (10 μM) and pargyline (10 μM) and maintained at 34° C., pH 7.4, with continual aeration (95% O2/5% CO2). Two five minute samples (5 mL each) were collected to determine basal outflow of [^3H]DA. The bis-quaternary ammonium analogs were added to the superfusion buffer after the collection of the second sample and remained in the buffer until 12 consecutive five minute samples were collected. Subsequently, S-nicotine (NIC; 10 μM) was added to the buffer and an additional 12 consecutive five minute samples were collected. At the end of the experiment, each slice was solubilized and the [^3H] content of the tissue determined.
Radioactivity in the superfusate and tissue samples was determined by liquid scintillation spectroscopy. Fractional release for tritium collected in each sample was divided by the total tritium present in the tissue at the time of sample collection and was expressed as a percentage of total tritium. Basal [^3H]outflow was calculated from the average of the tritium collected in the two five minute samples just before addition of the quaternary analog. The sum of the increase in collected tritium resulting from either exposure to the test compound or exposure to S-nicotine in the absence and presence of the test compound equaled total [^3H]overflow. [^3H]Overflow was calculated by subtracting the [^3H]outflow during an equivalent period of prestimulation from the values in samples collected during and after drug exposure. Inasmuch as the radiolabelled compounds were not separated and identified, the tritium collected in superfusate is referred to as either [3H]outflow or [^3H]overflow, rather than as [^3H]DA. [^3H]Overflow primarily represents [^3H]DA in the presence of nomifensine and pargyline in the superfusion buffer.
The bis-quaternary ammonium analogs were also evaluated for their ability to inhibit NIC evoked [^3H]DA release. In these experiments, the striatal slices were superfused for 60 minutes with 100 nM concentration of the quaternary analogs prior to NIC (10 μM) exposure. Antagonist activity was evaluated by comparing the NIC-evoked [^3 H]overflow in the absence and presence of the analogs. The relative order of potency of the quaternary analogs for inhibition of NIC-evoked [^3H]DA release from rat striatal slices is illustrated in Table 1.
^aData are % inhibition at 100 nM concentration of the bis-quaternary ammonium analogs for at least 1-3 independent experiments; with the exception of when a Ki value in μM is provided, in which case a full concentration effect was evaluated. Specific binding in the [^3H]NIC binding assay is calculated as the difference between the total binding of 3 nM [^3H]NIC and nonspecific binding in the presence of 10 μM cold cytisine. Specific binding for the [^3H]MLA binding assay is calculated as the difference between the total binding of […] [^3H]MLA to the receptors alone and its nonspecific binding in the presence of […] cold S-nicotine. Analog-induced inhibition of S-nicotine-evoked [^3H]DA release is calculated as a percent of that in the absence of the bis-quaternary ammonium analog.

With `C(#Cc1cccc(C#CCCC[n+]2cccc(-c3ccccc3)c2)c1)CCC[n+]1cccc(-c2ccccc2)c1` [Example 58, 1,3-bis-[5-(3-phenyl-pyridinium)-pent-1-ynyl]-benzene dibromide], the inhibition at 0.1 µM turned out to be 11% in assay [1], 3.4% in assay [2] and 8% in assay [3].

On to `Cc1ccc[n+](CCCCCc2ccccc2CCCCC[n+]2cccc(C)c2)c1` [Example 35, 1,2-bis-[5-(3-methyl-pyridinium)-pentyl]-benzene dibromide], for which the values for the inhibition at 0.1 µM in assay [1], in assay [2] and in assay [3] were 5.4%, 0% and 25%, respectively.

Consider `Cc1cc(C)c[n+](CCCC#Cc2cccc(C#CCCC[n+]3cc(C)cc(C)c3)c2)c1` [Example 53, 1,3-bis-[5-(3,5-dimethyl-pyridinium)-pent-1-ynyl]-benzene dibromide], for which the results for the inhibition at 0.1 µM in assay [1], in assay [2] and in assay [3] were 1.3%, 0% and 4%, respectively.

As for `Cc1cccc[n+]1CCCC#Cc1ccccc1C#CCCC[n+]1ccccc1C` [Example 23, 1,2-bis-[5-(2-methyl-pyridinium)-pent-1-ynyl]-benzene dibromide], the inhibition at 0.1 µM was determined as 1.2% in assay [1], 2.1% in assay [2] and 25% in assay [3].

Take `Cc1cc(C)c[n+](CCCC#Cc2ccccc2C#CCCC[n+]2cc(C)cc(C)c2)c1` [Example 28, 1,2-bis-[5-(3,5-dimethyl-pyridinium)-pent-1-ynyl]-benzene dibromide]: the inhibition at 0.1 µM in assay [1] came to 5%; in assay [2], 1.3%; in assay [3], 19%.

Take `Cc1cc[n+](CCCC#Cc2ccccc2C#CCCC[n+]2ccc(C)c(C)c2)cc1C` [Example 27, 1,2-bis-[5-(3,4-dimethyl-pyridinium)-pent-1-ynyl]-benzene dibromide]: the inhibition at 0.1 µM in assay [1] was 4.2%; in assay [2], 4.2%; in assay [3], 23%.

In the case of `Cc1ccc[n+](CCCc2ccc(-c3ccc(CCC[n+]4cccc(C)c4)cc3)cc2)c1` [Example 78, N,N′-[(1,1′-biphenyl)-4,4′-di-(3-propanyl)]-bis-(3-methylpyridinium)dibromide], the inhibition at 0.1 µM in assay [1] came out at 5.5%; in assay [2], 0%; in assay [3], 44%.

Take `Cc1cccc[n+]1CCCCCc1ccccc1CCCCC[n+]1ccccc1C` [Example 34, 1,2-bis-[5-(2-methyl-pyridinium)-pentyl]-benzene dibromide]: the inhibition at 0.1 µM in assay [1] was 7.6%; in assay [2], 0%; in assay [3] it was 8%.

Consider `Cc1cc(C)c[n+](CCCCCc2cccc(CCCCC[n+]3cc(C)cc(C)c3)c2)c1` [Example 67, 1,3-bis-[5-(3,5-dimethyl-pyridinium)-pentyl]-benzene dibromide], for which the inhibition at 0.1 µM in assay [1] was 1.4%; in assay [2], 4.8%; in assay [3], 34%.

Turning to `Cc1cc[n+](CCCCCc2ccccc2CCCCC[n+]2ccc(C)c(C)c2)cc1C` [Example 38, 1,2-bis-[5-(3,4-dimethyl-pyridinium)-pentyl]-benzene dibromide], the inhibition at 0.1 µM stood at 4.6% in assay [1], 3% in assay [2] and 10% in assay [3].

Turning to `C(#Cc1cccc(C#CCCC[n+]2cccc3ccccc32)c1)CCC[n+]1cccc2ccccc21` [Example 54, 1,3-bis-(5-quinolinium-pent-1-ynyl)-benzene dibromide], the inhibition at 0.1 µM in assay [1] was 3.9%; in assay [2] it was 16%; in assay [3] it was 17%.

Regarding “N,N′-[(1,1′-biphenyl)-4,4′-di-(3-propanyl)]-bis-[3-(2′-S-1-methyl-pyrrolidin-2-yl)-pyridinium]dibromide [Example 70]”, the “[^3H]MLA binding, % inhibition” value in assay [1] came out at 11%. Moreover, the “[^3H]NIC binding, % inhibition” value in assay [2] amounted to 12%. Further, the “[^3H]DA release, % inhibition of S-nicotine-evoked release” value in assay [3] turned out to be 8%.

Take `Cc1cc[n+](CCCCCc2cccc(CCCCC[n+]3ccc(C)cc3)c2)cc1` [Example 64, 1,3-bis-[5-(4-methyl-pyridinium)-pentyl]-benzene dibromide]: the inhibition at 0.1 µM was found to be 3.5% in assay [1], 4.6% in assay [2] and 27% in assay [3].

`Cc1cc[n+](CCC#Cc2ccc(C#CCC[n+]3ccc(C)c(C)c3)cc2)cc1C` [Example 100, N,N′-[(1,4-phenylene)-bis-(4-butynyl)]-bis-(3,4-dimethyl-pyridinium)dibromide]: the inhibition at 0.1 µM stood at 0% in assay [1], 3% in assay [2] and 31% in assay [3].

In the case of `CN1CCCC1c1ccc[n+](CCCCCc2ccccc2CCCCC[n+]2cccc([C@@H]3CCCN3C)c2)c1` (stereo partly drawn) [Example 42, 1,2-bis-[5-(2′-S-nicotinium-pentyl)]benzene dibromide], the inhibition at 0.1 µM in assay [1] worked out at 11%; in assay [2], 71%; in assay [3] it was 59%.

The term inhibition denotes the change of the read-out against control, counted positive when it falls.
